The source of these data is PMC5218480 (PLoS ONE, 2017).

The assay deals with MV-4-11 cells. The assay is described as follows: Gene expression microarray analysis (Affymetrix PrimeView) and GSEA. More on the design: RFU PODN (11730768_x_at) / Fold change /veh PODN (11730768_x_at) / RFU LINC00158 (11744669_a_at) / Fold change /veh LINC00158 (11744669_a_at) / RFU DUSP10 (11751237_a_at) / Fold change /veh DUSP10 (11751237_a_at) / RFU ID3 (11757404_x_at) / Fold change /veh ID3 (11757404_x_at) / RFU PLEKHG5 (11737974_s_at) / Fold change /veh PLEKHG5 (11737974_s_at) / RFU LRRC4B (11730491_at) / Fold change /veh LRRC4B (11730491_at) / RFU GIMAP4 (11747438_a_at) / Fold change /veh GIMAP4 (11747438_a_at) / RFU KRT8 (11758183_x_at) / Fold change /veh KRT8 (11758183_x_at) / RFU CNN1 (11734310_a_at) / Fold change /veh CNN1 (11734310_a_at) / RFU VPS37D (11726825_at) / Fold change /veh VPS37D (11726825_at) / RFU C10orf10 (11716522_x_at) / Fold change /veh C10orf10 (11716522_x_at) / RFU KIR2DL2 /// KIR2DL4 /// KIR2DL5A /// KIR2DL5B /// KIR2DS1 /// KIR2DS2 /// KIR2DS3 /// KIR2DS4 /// KIR3DL3 /// KIR3DL3 /// KIR3DS1 (11738374_at) / Fold change /veh KIR2DL2 /// KIR2DL4 /// KIR2DL5A /// KIR2DL5B /// KIR2DS1 /// KIR2DS2 /// KIR2DS3 /// KIR2DS4 /// KIR3DL3 /// KIR3DL3 /// KIR3DS1 (11738374_at) / RFU C1QL1 (11718748_at) / Fold change /veh C1QL1 (11718748_at) / RFU TMPRSS4 (11747572_a_at) / Fold change /veh TMPRSS4 (11747572_a_at) / RFU HAMP (11756126_x_at) / Fold change /veh HAMP (11756126_x_at) / RFU RNFT2 (11725882_a_at) / Fold change /veh RNFT2 (11725882_a_at) / RFU NR4A2 (11747474_a_at) / Fold change /veh NR4A2 (11747474_a_at) / RFU ABCC12 (11746883_a_at) / Fold change /veh ABCC12 (11746883_a_at) / RFU TMEM136 (11760407_x_at) / Fold change /veh TMEM136 (11760407_x_at) / RFU CLDN22 /// WWC2 (11732394_at) / Fold change /veh CLDN22 /// WWC2 (11732394_at) / RFU HLA-DPB1 (11760878_x_at) / Fold change /veh HLA-DPB1 (11760878_x_at) / RFU SPINT1 (11716480_a_at) / Fold change /veh SPINT1 (11716480_a_at) / RFU GAP43 (11754022_s_at) / Fold change /veh GAP43 (11754022_s_at) / RFU A4GNT (11735810_at) / Fold change /veh A4GNT (11735810_at) / RFU PRB3 (11715151_x_at) / Fold change /veh PRB3 (11715151_x_at) / RFU TUBB4B (11761932_at) / Fold change /veh TUBB4B (11761932_at) / RFU CAPN14 (11732068_a_at) / Fold change /veh CAPN14 (11732068_a_at) / RFU TMCC2 (11721928_a_at) / Fold change /veh TMCC2 (11721928_a_at) / RFU IRGQ (11745062_a_at) / Fold change /veh IRGQ (11745062_a_at) / RFU FAM174B (11720279_a_at) / Fold change /veh FAM174B (11720279_a_at) / RFU TMPRSS4 (11748680_a_at) / Fold change /veh TMPRSS4 (11748680_a_at) / RFU FAM212B (11763350_a_at) / Fold change /veh FAM212B (11763350_a_at) / RFU PLEKHG5 (11743358_a_at) / Fold change /veh PLEKHG5 (11743358_a_at) / RFU ZSCAN30 (11745921_a_at) / Fold change /veh ZSCAN30 (11745921_a_at) / RFU CMKLR1 (11741424_a_at) / Fold change /veh CMKLR1 (11741424_a_at) / RFU LOC101060620 /// MAPK8IP1 (11723275_at) / Fold change /veh LOC101060620 /// MAPK8IP1 (11723275_at) / RFU SPTSSB (11747773_x_at) / Fold change /veh SPTSSB (11747773_x_at) / RFU PRSS12 (11739890_at) / Fold change /veh PRSS12 (11739890_at) / RFU BIN1 (11741810_x_at) / Fold change /veh BIN1 (11741810_x_at) / RFU WNT11 (11732464_a_at) / Fold change /veh WNT11 (11732464_a_at) / RFU C10orf10 (11716521_a_at) / Fold change /veh C10orf10 (11716521_a_at) / RFU C5orf56 (11738089_at) / Fold change /veh C5orf56 (11738089_at) / RFU CYB561 (11721691_x_at) / Fold change /veh CYB561 (11721691_x_at) / RFU ANKRD19P (11752326_a_at) / Fold change /veh ANKRD19P (11752326_a_at) / RFU OR2T12 /// OR2T33 /// OR2T8 (11738714_s_at) / Fold change /veh OR2T12 /// OR2T33 /// OR2T8 (11738714_s_at) / RFU VCAN (11748164_a_at) / Fold change /veh VCAN (11748164_a_at) / RFU JSRP1 (11732532_at) / Fold change /veh JSRP1 (11732532_at) / RFU KRTAP10-11 (11738290_x_at) / Fold change /veh KRTAP10-11 (11738290_x_at) / RFU MYO3A (11730013_a_at) / Fold change /veh MYO3A (11730013_a_at) / RFU EBF3 (11725865_a_at) / Fold change /veh EBF3 (11725865_a_at) / RFU CAMK2N1 (11719241_x_at) / Fold change /veh CAMK2N1 (11719241_x_at) / RFU C5orf56 (11738088_a_at) / Fold change /veh C5orf56 (11738088_a_at) / RFU OLFML3 (11715873_a_at) / Fold change /veh OLFML3 (11715873_a_at) / RFU LOC100653217 /// NTM (11731650_a_at) / Fold change /veh LOC100653217 /// NTM (11731650_a_at) / RFU MAPK11 (11762145_a_at) / Fold change /veh MAPK11 (11762145_a_at) / RFU FIZ1 (11724087_x_at) / Fold change /veh FIZ1 (11724087_x_at) / RFU OASL (11726364_x_at) / Fold change /veh OASL (11726364_x_at) / RFU SOX15 (11748057_x_at) / Fold change /veh SOX15 (11748057_x_at) / RFU CD79A (11719716_a_at) / Fold change /veh CD79A (11719716_a_at) / RFU HIST1H1D (11736915_at) / Fold change /veh HIST1H1D (11736915_at) / RFU CASKIN2 (11723855_a_at) / Fold change /veh CASKIN2 (11723855_a_at) / RFU LOC730098 (11760151_x_at) / Fold change /veh LOC730098 (11760151_x_at) / RFU OR4N2 (11742367_at) / Fold change /veh OR4N2 (11742367_at) / RFU PRRT2 (11749266_a_at) / Fold change /veh PRRT2 (11749266_a_at) / RFU SNX32 (11753110_a_at) / Fold change /veh SNX32 (11753110_a_at) / RFU CDHR5 (11726645_a_at) / Fold change /veh CDHR5 (11726645_a_at) / RFU RCAN1 (11760418_a_at) / Fold change /veh RCAN1 (11760418_a_at) / RFU FAM167A (11723789_a_at) / Fold change /veh FAM167A (11723789_a_at) / RFU FAM26E (11764081_at) / Fold change /veh FAM26E (11764081_at) / RFU ISYNA1 (11749810_s_at) / Fold change /veh ISYNA1 (11749810_s_at) / RFU ACY1 (11761880_at) / Fold change /veh ACY1 (11761880_at) / RFU 11764098_at / Fold change /veh 11764098_at / RFU SAMD14 (11745864_x_at) / Fold change /veh SAMD14 (11745864_x_at) / RFU NPB (11741838_a_at) / Fold change /veh NPB (11741838_a_at) / RFU TMPRSS6 (11731388_a_at) / Fold change /veh TMPRSS6 (11731388_a_at) / RFU KRTAP10-2 (11738614_at) / Fold change /veh KRTAP10-2 (11738614_at) / RFU ARHGAP8 /// PRR5-ARHGAP8 (11727945_x_at) / Fold change /veh ARHGAP8 /// PRR5-ARHGAP8 (11727945_x_at) / RFU KRTAP5-7 /// NADSYN1 (11734609_at) / Fold change /veh KRTAP5-7 /// NADSYN1 (11734609_at) / RFU RASL12 (11751679_a_at) / Fold change /veh RASL12 (11751679_a_at) / RFU CDKN2B (11736163_a_at) / Fold change /veh CDKN2B (11736163_a_at) / RFU PRF1 (11729649_at) / Fold change /veh PRF1 (11729649_at) / RFU, ZNF638 /// ZNF638-IT1 / Fold change vs veh, ZNF638 /// ZNF638-IT1 / RFU, PANK3 / Fold change vs veh, PANK3 / RFU, SH3YL1 / Fold change vs veh, SH3YL1 / RFU, ZEB2 / Fold change vs veh, ZEB2 / RFU, NRIP1 / Fold change vs veh, NRIP1 / RFU, PTTG1IP / Fold change vs veh, PTTG1IP / RFU, CAPN2 / Fold change vs veh, CAPN2 / RFU, MED14 / Fold change vs veh, MED14 / RFU, SNORA58 / Fold change vs veh, SNORA58 / RFU, C1orf63 / Fold change vs veh, C1orf63 / RFU, LRRFIP1 / Fold change vs veh, LRRFIP1 / RFU, NDUFAF7 / Fold change vs veh, NDUFAF7 / RFU, SLC12A2 / Fold change vs veh, SLC12A2 / RFU, IBTK / Fold change vs veh, IBTK / RFU, ESF1 / Fold change vs veh, ESF1 / Fold change vs veh, TMEM50B / RFU, TAOK1 / Fold change vs veh, TAOK1 / RFU, ACBD3 / Fold change vs veh, ACBD3 / RFU, TMA16 / Fold change vs veh, TMA16 / RFU, RWDD3 / Fold change vs veh, RWDD3 / RFU, BCAT1 / Fold change vs veh, BCAT1 / RFU, EDEM3 / Fold change vs veh, EDEM3 / RFU, TMEM33 / Fold change vs veh, TMEM33 / RFU, WDR75 / Fold change vs veh, WDR75 / RFU, AHCTF1 / Fold change vs veh, AHCTF1 / RFU, TFRC / Fold change vs veh, TFRC / RFU, ZDHHC17 / Fold change vs veh, ZDHHC17 / RFU, NOM1 / Fold change vs veh, NOM1 / RFU, ARL8B / Fold change vs veh, ARL8B / RFU, ZBTB11 / Fold change vs veh, ZBTB11 / RFU, TAMM41 / Fold change vs veh, TAMM41 / RFU, KIAA1704 /// LOC100996395 / Fold change vs veh, KIAA1704 /// LOC100996395 / RFU, ING1 / Fold change vs veh, ING1 / RFU, TRMT61B / Fold change vs veh, TRMT61B / RFU, FUBP3 / Fold change vs veh, FUBP3 / RFU, TP53 / Fold change vs veh, TP53 / RFU, TNKS2 / Fold change vs veh, TNKS2 / RFU, ZFP14 / Fold change vs veh, ZFP14 / RFU, ACTR2 / Fold change vs veh, ACTR2 / RFU, PPP3R1 / Fold change vs veh, PPP3R1 / RFU, PIK3R1 / Fold change vs veh, PIK3R1 / RFU, HNRNPA1 / Fold change vs veh, HNRNPA1 / RFU, RNF170 / Fold change vs veh, RNF170 / RFU, ZNF28 / Fold change vs veh, ZNF28 / RFU, RNGTT / Fold change vs veh, RNGTT / RFU, OGT / Fold change vs veh, OGT / RFU, BRD1 / Fold change vs veh, BRD1 / RFU, MARS / Fold change vs veh, MARS / RFU, ZNF655 / Fold change vs veh, ZNF655 / RFU, FAHD1 / Fold change vs veh, FAHD1 / RFU, BDP1 / Fold change vs veh, BDP1 / RFU, LRRCC1 / Fold change vs veh, LRRCC1 / RFU, ARID1A / Fold change vs veh, ARID1A / RFU, ZNF146 / Fold change vs veh, ZNF146 / RFU, ZNF330 / Fold change vs veh, ZNF330 / RFU, GPN3 / Fold change vs veh, GPN3 / RFU, C9orf123 / Fold change vs veh, C9orf123 / RFU, N4BP2L2 / Fold change vs veh, N4BP2L2 / RFU, ARFIP1 / Fold change vs veh, ARFIP1 / RFU, FAM179B / Fold change vs veh, FAM179B / RFU, BCL10 / Fold change vs veh, BCL10 / RFU, UHRF1BP1L / Fold change vs veh, UHRF1BP1L / RFU, BET1 / Fold change vs veh, BET1 / RFU, CNOT2 / Fold change vs veh, CNOT2 / RFU, ZNF268 / Fold change vs veh, ZNF268 / Fold change vs veh, ZNF507 / RFU, DGCR2 / Fold change vs veh, DGCR2 / RFU, WDSUB1 / Fold change vs veh, WDSUB1 / Fold change vs veh, HSP90B1 /// MIR3652 / RFU, ADSS / Fold change vs veh, ADSS / RFU, GK / Fold change vs veh, GK / RFU, ZNF148 / Fold change vs veh, ZNF148 / RFU, TAF9 / Fold change vs veh, TAF9 / RFU, SLC1A5 / Fold change vs veh, SLC1A5 / RFU, SLMO2 / Fold change vs veh, SLMO2 / RFU, ABCC4 / Fold change vs veh, ABCC4 / RFU, LOC101060439 /// RAP1B / Fold change vs veh, LOC101060439 /// RAP1B / RFU, RFX7 / Fold change vs veh, RFX7 / RFU, GTPBP10 / Fold change vs veh, GTPBP10 / RFU, CNEP1R1 / Fold change vs veh, CNEP1R1 / RFU, BIVM-ERCC5 /// ERCC5 / Fold change vs veh, BIVM-ERCC5 /// ERCC5 / RFU, ILF3 / Fold change vs veh, ILF3 / RFU 11762660_at / Fold change /veh 11762660_at / RFU VCAN (11757783_s_at) / Fold change /veh VCAN (11757783_s_at) / RFU DDX43 (11728927_at) / Fold change /veh DDX43 (11728927_at) / RFU KRT8 (11758188_x_at) / Fold change /veh KRT8 (11758188_x_at) / RFU NKD1 (11759106_at) / Fold change /veh NKD1 (11759106_at) / RFU SRD5A1 (11742802_a_at) / Fold change /veh SRD5A1 (11742802_a_at) / RFU TPSAB1 /// TPSB2 (11721975_s_at) / Fold change /veh TPSAB1 /// TPSB2 (11721975_s_at) / RFU GSTM3 (11746129_a_at) / Fold change /veh GSTM3 (11746129_a_at) / RFU IL23R (11737362_x_at) / Fold change /veh IL23R (11737362_x_at) / RFU TMEM51 (11727254_a_at) / Fold change /veh TMEM51 (11727254_a_at) / RFU PIWIL2 (11732686_x_at) / Fold change /veh PIWIL2 (11732686_x_at) / RFU ORM1 (11744905_x_at) / Fold change /veh ORM1 (11744905_x_at) / RFU CCDC152 (11743942_at) / Fold change /veh CCDC152 (11743942_at) / RFU ECM1 (11717891_a_at) / Fold change /veh ECM1 (11717891_a_at) / RFU IL23R (11748794_a_at) / Fold change /veh IL23R (11748794_a_at) / RFU TNFAIP8L3 (11732012_x_at) / Fold change /veh TNFAIP8L3 (11732012_x_at) / RFU MBOAT4 (11741988_at) / Fold change /veh MBOAT4 (11741988_at) / RFU 11764193_at / Fold change /veh 11764193_at / RFU TMEM53 (11763286_at) / Fold change /veh TMEM53 (11763286_at) / RFU MAGEB2 (11727129_at) / Fold change /veh MAGEB2 (11727129_at) / RFU TMEM200A (11744735_a_at) / Fold change /veh TMEM200A (11744735_a_at) / RFU CCDC152 (11751479_a_at) / Fold change /veh CCDC152 (11751479_a_at) / RFU FAM211A (11726209_a_at) / Fold change /veh FAM211A (11726209_a_at) / RFU RGS16 (11746705_a_at) / Fold change /veh RGS16 (11746705_a_at) / RFU VCAN (11755009_s_at) / Fold change /veh VCAN (11755009_s_at) / RFU RHOB (11743442_s_at) / Fold change /veh RHOB (11743442_s_at) / RFU RGS16 (11720943_a_at) / Fold change /veh RGS16 (11720943_a_at) / RFU RGS16 (11720944_at) / Fold change /veh RGS16 (11720944_at) / RFU, VPS4B / Fold change vs veh, VPS4B / RFU, CREB1 / Fold change vs veh, CREB1 / RFU, DNAJC13 / Fold change vs veh, DNAJC13 / RFU, GNAQ / Fold change vs veh, GNAQ / RFU, CDK5R1 / Fold change vs veh, CDK5R1 / RFU, ZRANB3 / Fold change vs veh, ZRANB3 / RFU, CUL4A / Fold change vs veh, CUL4A / RFU, CCNY / Fold change vs veh, CCNY / RFU, UFL1 / Fold change vs veh, UFL1 / RFU, COG3 / Fold change vs veh, COG3 / RFU, DIAPH2 / Fold change vs veh, DIAPH2 / RFU, SKA2 / Fold change vs veh, SKA2 / RFU, AFF3 / Fold change vs veh, AFF3 / RFU, LMF1 / Fold change vs veh, LMF1 / RFU, IPO11 / Fold change vs veh, IPO11 / RFU, DFFB / Fold change vs veh, DFFB / RFU, FOXP1 / Fold change vs veh, FOXP1 / RFU, CARD8 / Fold change vs veh, CARD8 / RFU, STRN3 / Fold change vs veh, STRN3 / RFU, ADK / Fold change vs veh, ADK / RFU, RASSF2 / Fold change vs veh, RASSF2 / RFU, WIPF1 / Fold change vs veh, WIPF1 / RFU, LARP1B / Fold change vs veh, LARP1B / RFU, RASA1 / Fold change vs veh, RASA1 / RFU, RB1 / Fold change vs veh, RB1 / RFU, PPFIA1 / Fold change vs veh, PPFIA1 / RFU, MAT2A / Fold change vs veh, MAT2A / RFU, CCT5 / Fold change vs veh, CCT5 / RFU, WDR92 / Fold change vs veh, WDR92 / RFU, CUX1 / Fold change vs veh, CUX1 / RFU, TTC7A / Fold change vs veh, TTC7A / RFU, TMEM135 / Fold change vs veh, TMEM135 / RFU, DEPTOR / Fold change vs veh, DEPTOR / RFU, CPM / Fold change vs veh, CPM / RFU, DNAJB6 / Fold change vs veh, DNAJB6 / RFU, CACNA2D3 / Fold change vs veh, CACNA2D3 / RFU, DTX4 / Fold change vs veh, DTX4 / RFU, TFCP2 / Fold change vs veh, TFCP2 / RFU, GMCL1 /// GMCL1P1 / Fold change vs veh, GMCL1 /// GMCL1P1 / RFU, AEBP2 / Fold change vs veh, AEBP2 / RFU, SNHG1 /// SNORD22 /// SNORD25 /// SNORD26 /// SNORD27 /// SNORD28 /// SNORD29 /// SNORD31 / Fold change vs veh, SNHG1 /// SNORD22 /// SNORD25 /// SNORD26 /// SNORD27 /// SNORD28 /// SNORD29 /// SNORD31 / Fold change (Aza/veh), C12orf56 (ProbeSet 11735607_a_at) / Fold change (ACY-1035/veh), C12orf56 (ProbeSet 11735607_a_at) / Fold change (Aza/veh), FGFR1OP (ProbeSet 11751329_s_at) / Fold change (ACY-1035/veh), FGFR1OP (ProbeSet 11751329_s_at) / Fold change (Aza/veh), VPS36 (ProbeSet 11739960_a_at) / Fold change (ACY-1035/veh), VPS36 (ProbeSet 11739960_a_at) / RFU SYPL1 (11715823_x_at) / Fold change /veh SYPL1 (11715823_x_at) / RFU IGFBP7 (11715501_s_at) / Fold change /veh IGFBP7 (11715501_s_at) / RFU REEP3 (11722064_at) / Fold change /veh REEP3 (11722064_at) / RFU IGLL1 (11728026_x_at) / Fold change /veh IGLL1 (11728026_x_at): dose or concentration left out as unconfirmed. In kind it is cell-based, human. As to conditions: MV-4-11 cells, 48 hours.

For the molecule `Nc1ccc(-c2cccs2)cc1NC(=O)c1ccc2c(c1)cc(C1CC1)n2CCN1CCOCC1` [ACY-1035], the “Fold change /veh C10orf10 (11716522_x_at)” value is listed as 1.10.
